One assay deals with T1, human CYP11B2 (Homo sapiens, UniProt P19099).
T1 construct: expressed in transfected cells; host or cells: hamster V79MZh cells
T1 sequence (P19099 25-503): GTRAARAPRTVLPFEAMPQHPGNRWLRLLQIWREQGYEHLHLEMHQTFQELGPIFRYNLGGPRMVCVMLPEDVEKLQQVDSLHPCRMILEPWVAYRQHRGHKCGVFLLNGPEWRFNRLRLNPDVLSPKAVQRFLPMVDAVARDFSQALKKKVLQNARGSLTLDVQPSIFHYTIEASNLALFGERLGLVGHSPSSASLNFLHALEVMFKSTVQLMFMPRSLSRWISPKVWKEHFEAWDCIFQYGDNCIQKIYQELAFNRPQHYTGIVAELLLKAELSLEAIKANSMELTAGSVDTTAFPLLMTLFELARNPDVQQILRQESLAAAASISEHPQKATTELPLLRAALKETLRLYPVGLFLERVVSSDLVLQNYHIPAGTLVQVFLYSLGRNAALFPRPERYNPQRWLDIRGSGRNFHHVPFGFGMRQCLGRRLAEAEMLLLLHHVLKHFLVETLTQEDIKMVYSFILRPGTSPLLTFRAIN
Description: CYP11B2 inhibition assay in V79MZh cells. It counts as cell-based. To be noted: for inhibition at 10 µM: at 10 μM concentration, V79MZh cells; for IC50: human CYP11B2 expressed in hamster V79MZh cells, mean of at least three experiments. The procedure: (§1) The selected potential inhibitors were dissolved in DMSO at a concentration of 10 mM to generate stock solutions. Various aliquots were then made from fresh stock solutions and each aliquot was tested only once.
(§2) The selected hits were evaluated for their inhibition of human CYP11B1 and CYP11B2 enzymes expressed in hamster V79MZh cells. Approximately […] V79MZh cells were cultured in 24-well cell culture plates for 24 h. The area of each well was 1.9 cm^2. The cells were exposed to various concentrations of inhibitor solutions. The reactions were started by incubating the cells with [^3H]11-deoxycorticosterone. The incubation time for CYP11B1 cells was 15–60 and 50–120 min for CYP11B2 cells. The reactions were stopped by extracting the supernatant with cold ethyl acetate at 4°C. Samples were mixed (10 min), and centrifuged (12,500 rpm). The organic (upper) layer was separated into fresh Eppendorf tubes and dried. The steroids were re-dissolved in methanol-water (65–35%) and were analyzed by radio-HPLC (Denner et al., [1995a]; Ehmer et al., [2002]).

Another assay addresses T2, human CYP11B1 (Homo sapiens, UniProt P15538).
T2 construct: expressed in transfected cells; host or cells: hamster V79MZh cells
T2 sequence (P15538 25-503): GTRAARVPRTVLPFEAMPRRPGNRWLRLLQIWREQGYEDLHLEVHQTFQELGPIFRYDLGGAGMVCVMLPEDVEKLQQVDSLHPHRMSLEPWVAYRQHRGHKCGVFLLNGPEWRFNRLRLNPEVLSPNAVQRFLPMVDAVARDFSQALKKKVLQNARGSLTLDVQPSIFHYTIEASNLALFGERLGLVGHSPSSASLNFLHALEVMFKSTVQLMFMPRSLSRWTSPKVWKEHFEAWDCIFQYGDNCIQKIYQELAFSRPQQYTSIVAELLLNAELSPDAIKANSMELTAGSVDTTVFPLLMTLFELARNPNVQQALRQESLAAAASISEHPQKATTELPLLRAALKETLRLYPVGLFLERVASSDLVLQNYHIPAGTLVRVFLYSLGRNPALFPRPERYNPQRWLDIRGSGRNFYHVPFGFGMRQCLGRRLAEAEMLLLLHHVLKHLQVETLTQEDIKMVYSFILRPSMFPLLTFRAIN
Description: CYP11B1 inhibition assay in V79MZh cells. The assay is classed as cell-based. The settings on record: for inhibition at 10 µM: at 10 μM concentration, V79MZh cells; for IC50: human CYP11B1 expressed in hamster V79MZh cells, mean of at least three experiments. Here is the method: as §1, §2

Assay [1] concerns the target T3, Human CYP17 (Homo sapiens, UniProt P05093).
T3 construct: made in house; host or cells: Escherichia coli (5,000 g sediment of the homogenate)
T3 sequence (P05093 1-508): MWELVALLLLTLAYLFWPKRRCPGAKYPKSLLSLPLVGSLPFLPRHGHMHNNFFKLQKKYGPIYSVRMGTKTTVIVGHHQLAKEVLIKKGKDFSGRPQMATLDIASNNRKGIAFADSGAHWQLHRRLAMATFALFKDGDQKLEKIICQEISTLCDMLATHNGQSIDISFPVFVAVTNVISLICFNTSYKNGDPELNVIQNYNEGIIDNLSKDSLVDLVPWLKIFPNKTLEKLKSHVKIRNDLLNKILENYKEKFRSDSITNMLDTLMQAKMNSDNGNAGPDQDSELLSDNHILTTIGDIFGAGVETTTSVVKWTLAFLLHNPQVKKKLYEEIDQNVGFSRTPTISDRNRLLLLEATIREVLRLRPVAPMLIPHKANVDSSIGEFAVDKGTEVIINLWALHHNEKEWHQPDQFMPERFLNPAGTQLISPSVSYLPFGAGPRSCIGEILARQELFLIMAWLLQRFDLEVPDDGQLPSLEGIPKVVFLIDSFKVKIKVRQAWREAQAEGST
Description: CYP17 inhibition assay. It counts as biochemical. To be noted: at 10 μM concentration; for CYP17 inhibition: human CYP17 from Escherichia coli, n.i. = not inhibited. The procedure:
The inhibition of CYP17 was investigated using the 5,000 g sediment of homogenized Escherichia coli (Ehmer et al., [2000]). Human CYP17 along with NADPH-P450 reductase was used to perform the assay as described previously. The incubation time for the reaction was 30 min at 37°C. The reaction was started by adding [^3H]-progesterone, and was quenched with 1 M HCl. The reaction mixture was extracted twice with ethyl acetate at 4°C in order to avoid impurities. The samples were dried, prepared with methanol, and analyzed with radio-HPLC. DSMO was used as negative control.

Assay [2] concerns the target T3, Human CYP17. Also noted: method as in Sergejew and Hartmann, 1994. To be noted: reference inhibitor; ref Sergejew and Hartmann, 1994; cited from earlier work.

Several values for one entry are separate records, joined by “and”; a condition that tells them apart may be missing. Equal entries are not always repeated.

The inhibition is the change of the read-out against control, counted positive when it falls. Read a high inhibition as a strong effect. A word on the IC50: it is the concentration that inhibits the measured activity by half. Regarding `CC(C)CC(=O)Nc1ccc(Cc2ccncc2)cc1` [Compound 8], on human CYP11B2, the inhibition at 10 µM is more than 50% and the IC50 turned out to be 2770 ± 480 nM. On human CYP11B1, the inhibition at 10 µM was more than 50% and the midpoint of inhibition, the IC50, lay at 3040 ± 720 nM. For the same compound, on Human CYP17 [1], the inhibition at 10 µM is not above 3% and the CYP17 inhibition entry is reported as “n.i.^e”.
On to `c1ccc2c(-c3nn4cnnc4s3)cccc2c1` [Compound 12], for which, on human CYP11B2, the IC50 was 1100 nM and 1120 nM. This compound showed an inhibition at 10 µM against human CYP11B1 of 33 ± 6%. For the same compound, on Human CYP17 [1], the inhibition at 10 µM is not above 3% and the CYP17 inhibition result was “n.i”.
Take `C[C@]12CC[C@H](O)CC1=CC[C@@H]1[C@@H]2CC[C@]2(C)C(c3cccnc3)=CC[C@@H]12` [Abiraterone]: the IC50 on Human CYP17 [2] was 100 nM.
On human CYP11B2, `CC(OCc1ccc(F)cc1)n1ccnc1` (centres unmarked) [Compound 9] returned an inhibition at 10 µM of more than 50% and a 50% inhibitory concentration (IC50) of 80 ± 5 nM. For the same compound, on human CYP11B1, the inhibition at 10 µM was more than 50% and the IC50 was 210 ± 40 nM. At Human CYP17 [1], the inhibition at 10 µM was not above 3% and the CYP17 inhibition result was “n.i”.
On human CYP11B2, `COc1cc(Cl)c(S(=O)(=O)n2ccnc2)cc1Cl` [Compound 10] yielded an inhibition at 10 µM of more than 50% and an IC50 of 110 ± 20 nM. Further, at human CYP11B1, the inhibition at 10 µM was more than 50% and the IC50 was 130 ± 20 nM. At Human CYP17 [1], the inhibition at 10 µM was not above 3% and the CYP17 inhibition entry is reported as “n.i”.

These data come from article PMC5742115, “Pharmacophore Modeling and in Silico/in Vitro Screening for Human Cytochrome P450 11B1 and Cytochrome P450 11B2 Inhibitors” (Frontiers in Chemistry, 2017).
